# Calls of active or inactive are those of the source. No cut-off for these calls is given here.
# How the values were obtained:
# [1] = tested on: Daudi; test: Antiproliferative activity against human Daudi cells assessed as inhibition of cell growth incubated for 48 hrs by CCK-8 assay; format: functional, cell-based
# [2] = tested on: Raji; test: Induction of cell cycle arrest in human Raji cells assessed as accumulation of cells at G0/G1 phase at 5 uM incubated for 48 hrs by PI staining based flow cytometry analysis (reference value: 20.16%); format: functional
# [3] = tested on: Daudi; test: Induction of cell cycle arrest at G0/G1 phase in human Daudi cells assessed as downregulation of CDK2 protein expression at 0.75 to 3 uM incubated for 24 to 48 hrs by Western blot analysis; format: functional, cell-based; conditions: dose 0.75-3 µM, time 24-48 hrs
# [4] = tested on: Daudi; test: Induction of cell cycle arrest at G0/G1 phase in human Daudi cells assessed as downregulation of CDK4 protein expression at 0.75 to 3 uM incubated for 24 to 48 hrs by Western blot analysis; format: functional, cell-based; conditions: dose 0.75-3 µM, time 24-48 hrs
# [5] = tested on: Daudi; test: Induction of cell cycle arrest at G0/G1 phase in human Daudi cells assessed as downregulation of Cyclin E1 protein expression at 0.75 to 3 uM incubated for 24 to 48 hrs by Western blot analysis; format: functional, cell-based; conditions: dose 0.75-3 µM, time 24-48 hrs
# [6] = tested on: Daudi; test: Induction of cell cycle arrest at G0/G1 phase in human Daudi cells assessed as upregulation of p21 protein expression at 0.75 to 3 uM incubated for 24 to 48 hrs by Western blot analysis; format: functional, cell-based; conditions: dose 0.75-3 µM, time 24-48 hrs
# [7] = tested on: Raji; test: Induction of cell cycle arrest at G0/G1 phase in human Raji cells assessed as downregulation of CDK2 protein expression at 1.25 to 5 uM incubated for 24 to 48 hrs by Western blot analysis; format: functional, cell-based; conditions: dose 1.25-5 µM, time 24-48 hrs
# [8] = tested on: Raji; test: Induction of cell cycle arrest at G0/G1 phase in human Raji cells assessed as downregulation of CyclinE1 protein expression at 1.25 to 5 uM incubated for 24 to 48 hrs by Western blot analysis; format: functional, cell-based; conditions: dose 1.25-5 µM, time 24-48 hrs
# [9] = tested on: Daudi; test: Induction of apoptosis in human Daudi cells assessed as total apoptotic cells at 3 uM incubated for 24 hrs by Annexin-V/PI staining based flow cytometric analysis relative to control; format: functional
# [10] = tested on: Daudi; test: Induction of cell cycle arrest in human Daudi cells assessed as S phase cells at 3 uM incubated for 24 hrs by PI staining based flow cytometry analysis (reference value: 49.79%); format: functional
# [11] = tested on: Raji; test: Induction of cell cycle arrest in human Raji cells assessed as G2 phase cells at 5 uM incubated for 48 hrs by PI staining based flow cytometry analysis (reference value: 10.06%); format: functional
# [12] = tested on: Daudi; test: Induction of apoptosis in human Daudi cells assessed as downregulation of Bcl-xl expression at 0.75 to 3 uM incubated for 24 hrs by Western blot analysis; format: functional, cell-based; conditions: dose 0.75-3 µM
# [13] = tested on: Raji; test: Induction of apoptosis in human Raji cells assessed as upregulation of cleaved caspase-3 expression at 1.25 to 5 uM incubated for 24 hrs by Western blot analysis; format: functional, cell-based; conditions: dose 1.25-5 µM
# [14] = tested on: Raji; test: Induction of apoptosis in human Raji cells assessed as downregulation of Mcl-1 expression at 1.25 to 5 uM incubated for 24 hrs by Western blot analysis; format: functional, cell-based; conditions: dose 1.25-5 µM
# [15] = tested on: Daudi; test: Induction of apoptosis in human Daudi cells assessed as nuclear fragmentation incubated for 24 hrs by Hoechst 33258/PI staining based fluorescence microscopic analysis; format: functional, cell-based; conditions: dose 0.75-3 µM
# [16] = tested on: Raji; test: Induction of apoptosis in human Raji cells assessed as nuclear condensation incubated for 48 hrs by Hoechst 33258/PI staining based fluorescence microscopic analysis; format: functional, cell-based; conditions: dose 1.25-5 µM
# [17] = tested on: Daudi; test: Induction of mitochondrial dysfunction in human Daudi cells assessed as decrease in ATP content incubated for 24 hrs by CellTiter-Lumi […] assay; format: functional, cell-based; conditions: dose 0.75-3 µM
# [18] = tested on: Raji; test: Induction of mitochondrial dysfunction in human Raji cells assessed as decrease in ATP content incubated for 24 hrs by CellTiter-Lumi […] assay; format: functional, cell-based; conditions: dose 1.25-5 µM
# [19] = tested on: Daudi; test: Induction of mitochondrial dysfunction in human Daudi cells assessed as decrease in ATP-5H protein expression at 1.5 to 3 uM incubated for 48 hrs by Western blot analysis; format: functional, cell-based; conditions: dose 1.5-3 µM
# [20] = tested on: Raji; test: Induction of mitochondrial dysfunction in human Raji cells assessed as decrease in ATP-5J protein expression at 2.5 to 5 uM incubated for 48 hrs by Western blot analysis; format: functional, cell-based; conditions: dose 2.5-5 µM
# [21] = tested on: Daudi; test: Induction of mitochondrial respiratory chain damage in human Daudi cells assessed as decrease in NDUFV2 protein expression at 1.5 to 3 uM incubated for 48 hrs by Western blot analysis; format: functional, cell-based; conditions: dose 1.5-3 µM
# [22] = tested on: Raji; test: Induction of mitochondrial respiratory chain damage in human Raji cells assessed as decrease in NDUFV2 protein expression at 2.5 to 5 uM incubated for 48 hrs by Western blot analysis; format: functional, cell-based; conditions: dose 2.5-5 µM
# [23] = tested on: Raji; test: Induction of mitochondrial respiratory chain damage in human Raji cells assessed as decrease in SDHA protein expression at 2.5 to 5 uM incubated for 48 hrs by Western blot analysis; format: functional, cell-based; conditions: dose 2.5-5 µM
# [24] = tested on: Raji; test: Effect on total PI3K protein level in human Raji cells at 1.25 to 5 uM incubated for 24 hrs by Western blot analysis; format: functional, cell-based; conditions: dose 1.25-5 µM
# [25] = tested on: Daudi; test: Effect on total AKT protein level in human Daudi cells at 0.75 to 3 uM incubated for 24 hrs by Western blot analysis; format: functional, cell-based; conditions: dose 0.75-3 µM
# [26] = tested on: Raji; test: Downregulation of c-Myc expression level in human Raji cells incubated for 24 hrs by Western blot analysis; format: functional, cell-based; conditions: dose 1.25-5 µM
# [27] = Inhibition of PI3K/AKT/mTOR signalling pathway in human Daudi cells assessed as increase in ratio of PI3K phosphorylation to total PI3K protein level at 3 uM incubated for 12 hrs in the presence of YS49 by Western blot analysis; format: cell-based
# [28] = Inhibition of PI3K/AKT/mTOR signalling pathway in human Daudi cells assessed as increase in ratio of mTOR phosphorylation to total mTOR protein level at 3 uM incubated for 12 hrs in the presence of YS49 by Western blot analysis; format: cell-based
# [29] = tested on: Daudi; test: Induction of apoptosis in human Daudi cells assessed as early apoptotic cells at 3 uM incubated for 24 hrs by Annexin V-FITC/PI staining based flow cytometric analysis (reference value: 1.7%); format: functional
# [30] = tested on: Daudi; test: Induction of apoptosis in human Daudi cells assessed as late apoptotic cells at 3 uM incubated for 24 hrs by Annexin V-FITC/PI staining based flow cytometric analysis (reference value: 0.0%); format: functional
# [31] = tested on: Daudi; test: Induction of apoptosis in human Daudi cells assessed as necrotic cells at 3 uM incubated for 24 hrs in the presence of YS49 by Annexin V-FITC/PI staining based flow cytometric analysis (reference value: 1.0%); format: functional
# [32] = tested on: Raji; test: Induction of apoptosis in human Raji cells assessed as viable cells at 5 uM incubated for 24 hrs by Annexin V-FITC/PI staining based flow cytometric analysis (reference value: 97.8%); format: functional; conditions: read-out: Activity
# [33] = tested on: Raji; test: Induction of apoptosis in human Raji cells assessed as viable cells at 5 uM incubated for 24 hrs in the presence of YS49 by Annexin V-FITC/PI staining based flow cytometric analysis (reference value: 97.8%); format: functional; conditions: read-out: Activity
# [34] = tested on: Raji; test: Induction of apoptosis in human Raji cells assessed as early apoptotic cells at 5 uM incubated for 24 hrs in the presence of YS49 by Annexin V-FITC/PI staining based flow cytometric analysis (reference value: 0.8%); format: functional
# [35] = tested on: Raji; test: Induction of apoptosis in human Raji cells assessed as necrotic cells at 5 uM incubated for 24 hrs in the presence of YS49 by Annexin V-FITC/PI staining based flow cytometric analysis (reference value: 1.5%); format: functional
structure (smiles),measurement,setting,value
COc1c(OC)c2c3c(nccc3c1-c1cc(C)cc(C)c1)C(c1cc(C)cc(C)c1)=CN2,IC50,[1],3.48 µM
same,Activity,[2],40.65%
same,Activity,[3],Active
same,Activity,[4],Active
same,Activity,[5],Active
same,Activity,[6],Active
same,Activity,[7],Active
same,Activity,[8],Active
same,Activity,[9],21.6%
same,Activity,[10],30.03%
same,Activity,[11],9.61%
same,Activity,[12],Active
same,Activity,[13],Active
same,Activity,[14],Active
same,Activity,[15],Dose-Dependent Effect
same,Activity,[16],Dose-Dependent Effect
same,Activity,[17],Dose-Dependent Effect
same,Activity,[18],Dose-Dependent Effect
same,Activity,[19],Active
same,Activity,[20],Active
same,Activity,[21],Active
same,Activity,[22],Active
same,Activity,[23],Active
same,Activity,[24],inactive
same,Activity,[25],inactive
same,Activity,[26],Dose-Dependent Effect
same,inhibition,[27],inactive
same,inhibition,[28],inactive
same,Activity,[29],18.6%
same,Activity,[30],5.4%
same,Activity,[31],1.7%
same,viability at 5 µM,[32],56.2%
same,viability at 5 µM,[33],67%
same,Activity,[34],11.2%
same,Activity,[35],20.8%
